From patent publication US20120196927A1, “PROPHYLACTIC AND/OR THERAPEUTIC AGENT FOR METABOLIC SYNDROME” (priority 2009, published 2012)

Legend:
Assay type in all cases: in vivo, mouse
[1] = system: adipose cells of the white adipose tissue; experiment: Nobiletin, obesity-induced mice: size of the adipose cells; settings: epididymis adipose tissue sections
Text: After the completion of the experiment, the adipose tissue of mice epididymis was excised to prepare sections to stain by using both of hematoxylin and eosin (n=9). These sections were observes under the microscope with 200-fold magnification to compare cell seizes in the field of photomicroscope vision.

[2] = system: male C57BL/6 mice; experiment: Nobiletin, obesity-induced mice: blood lipid, glucose and adiponectin level; settings: HFD; for Adipo *2 (Relative level of adiponectin): blood adiponectin to total weight of the white adipose tissue
Experimental: After the completion of the experiment, the levels of the blood neutral fat, total cholesterol, glucose, and adiponectin in the fating state, and those of the blood neutral fat, total cholesterol, and glucose in satiety state were determined as the same as those in the Example 1. In the table 22, relative adiponectin level means the ratio of specific level of the blood adiponectin to the total weight of the white adipose tissue.

[3] = system: male C57BL/6 mice; experiment: Nobiletin, obesity-induced mice: body weight and ingestion amount; settings: for Body weight: HFD obesity-induced mice; for Ingestion amount, [Final Average]: average of 5 weeks; for Body weight, [Final gain]: gained amount during 0 to +5 weeks; for Ingestion amount: per mouse in 24 hrs
Text: (§1) Six weeks age of male C57BL/6 mice were preliminary reared for 1 week (−9 to −8 week); then classified into 4 groups (n=9 in each group). LFD was given to one group and HFD was given to other 3 groups for 8 weeks (−8 to +5 week). From 8 weeks (15 week age) to 13 weeks, each group was given the following agents per os for 5 weeks in everyday. In below, the LFD administration group was defined that they ingested LFD; the HFD administration group is defined that they ingested the HFD without nobiletin. The compositions of the LFD and HFD are the same as those used in the Example 3.
(§2) To both of the LFD administration group and the HFD administration group, 0.3% CMC aqueous solution was given at the amount of 0.01 mL/g body weight. […] The group to which nobiletin was given at the amount of 10 mg/kg/day was referred to as “No10 administration group; the abbreviated as HFD+No 10” and another group to which nobiletin was given at the amount of 100 mg/kg/day was referred to as “No 100 administration group; abbreviated as HFD+No 100”. The schedule of the feed ingestion and administration of the agent for the above-mentioned 4 groups were schematically shown in FIG. 12A.
In the table, [Final gain] means gained amount during 0 to +5 weeks. […] By this, it was shown that nobiletin has the effect to suppress the body weight gain after the obesity induction by ingesting the high fat diet.
The ingestion amount of each mouse was measured everyday from 1 to 8 day (0 week) in the beginning of the agent administration. The ingested amount in 24 hrs was measured per cage, and then the average ingestion amount (g) per mouse was calculated. The date of day 0 means that of the previous day of the administration beginning. After 2 weeks from the administration, it was measured twice a week. [Final average] means the average of 5 weeks.

[4] = system: GLUT4 protein; experiment: Diabetes model mice: GLUT4 protein expression level (Western blotting); settings: ob/ob mice, nobiletin 200 mg/kg/day, Pioglitazone 30 mg/kg/day
Experimental: After finishing the experiment, the white adipose tissue and skeletal muscle were excised according to that described in the example 1, protein expression level of GLUT 4 were detected by using Western blotting method. The expression levels of GLUT4 protein were determined by using Na^+/K^+ ATPase α-1 protein as an internal reference.

[5] = system: C57BL/6J-ob/ob mice; settings: p.o. daily 5 weeks, nobiletin 200 mg/kg/day (No200), Pioglitazone 30 mg/kg/day (P30)
Text: Diabetes model mice and the experimental system were as follows. As the diabetes model mice, 7 week age of male C57BL/6J-ob/ob (hereinafter, it was referred to as “ob/ob”) were purchased from Charles River Laboratories Japan Inc., and used as 10 mice/group.
For the negative control group (from FIGS. 5 to 10, it was shown as Vehicle; hereinafter, it is referred to as “solvent administration group”), 0.3% of CMC aqueous solution was administrated orally for 5 weeks in everyday at the dosage of 0.01 mL/g body weight. For the positive control group (in FIGS. 5 to 10 and hereinafter, it was referred to as “P30 administrated group”), 3 mg of Pioglitazone was suspended in 0.3% CMC aqueous solution so as to be orally administrated at the dosage of 0.01 mL/g body weight for 5 weeks in everyday (dosage: 30 mg/kg body weight/day).
For the sample ingestion group (in FIGS. 5 to 10 and hereinafter, it is referred to as “No200 ingestion group”), 20 mg of nobiletin purified as mentioned above (1) was suspended in 0.3% of carboxymethylcellulose (CMC) aqueous solution so as to be orally administrated at the dose of 0.01 mL/g body weight for 5 weeks in everyday (the dose: 200 mg/kg/day).
The body weight of mice, ingestion amount, weight of the white adipose tissue and liver weight of each mice were measured as the same as described in the example 3.

[6] = system: adipose cells of the white adipose tissue; experiment: Diabetes model mice: size of adipose cells of the white adipose tissue; settings: 200 mg/kg of nobiletin
[7] = system: male C57BL/6 mice; experiment: Nobiletin, obesity-induced mice: tissue weight; settings: HFD obesity-induced mice
Text: as §1, §2

[8] = nobiletin 10 mg/kg/day p.o. 5 weeks
[9] = nobiletin 100 mg/kg/day p.o. 5 weeks
[10] = Fasting state, nobiletin 10 mg/kg/day p.o. 5 weeks
[11] = Fasting state, nobiletin 100 mg/kg/day p.o. 5 weeks
[12] = Satiety state, nobiletin 10 mg/kg/day p.o. 5 weeks
[13] = Satiety state, nobiletin 100 mg/kg/day p.o. 5 weeks
[14] = nobiletin 10 mg/kg/day p.o., HFD
[15] = nobiletin 100 mg/kg/day p.o., HFD
[16] = Western blotting, Vehicle = 1.00, 5 weeks

COc1ccc(-c2cc(=O)c3c(OC)c(OC)c(OC)c(OC)c3o2)cc1OC [nobiletin]
adipose cell size compared with HFD group [1, 8]: not large difference
adipose cell size compared with HFD group [1, 9]: became smaller
Blood level, Adipo *1 (adiponectin) [2, 10]: 7.19 ± 0.82 µg/mL
Blood level, Glucose [2, 10]: 157.47 ± 10.54 mg/dL
Blood level, T-CHO [2, 10]: 109.88 ± 9.09 mg/dL
Blood level, TG [2, 10]: 79.99 ± 8.04 mg/dL
Blood level, Adipo *1 (adiponectin) [2, 11]: 6.96 ± 0.99 µg/mL
Blood level, Glucose [2, 11]: 128.49 ± 5.59 mg/dL
Blood level, T-CHO [2, 11]: 131.55 ± 8.63 mg/dL
Blood level, TG [2, 11]: 78.69 ± 6.57 mg/dL
Blood level, Glucose [2, 12]: 224 ± 24.67 mg/dL
Blood level, T-CHO [2, 12]: 147.47 ± 10.40 mg/dL
Blood level, TG [2, 12]: 141.05 ± 12.25 mg/dL
Blood level, Glucose [2, 13]: 224.76 ± 21.88 mg/dL
Blood level, T-CHO [2, 13]: 169.24 ± 6.03 mg/dL
Blood level, TG [2, 13]: 100.80 ± 14.95 mg/dL
Adipo *2 (Relative level of adiponectin) ([2]; Fasting state, nobiletin 10 mg/kg/day p.o.): 3.87 ± 0.86 µg/mL/g
Adipo *2 (Relative level of adiponectin) ([2]; Fasting state, nobiletin 100 mg/kg/day p.o.): 5.34 ± 0.97 µg/mL/g
Body weight [3, 8]: 33.14 ± 1.02 g
Body weight ([3]; nobiletin 10 mg/kg/day p.o., 0 weeks after administration): 31.07 ± 0.78 g
Body weight ([3]; nobiletin 10 mg/kg/day p.o., 1 week): 31.10 ± 0.72 g
Body weight ([3]; nobiletin 10 mg/kg/day p.o., 2 weeks): 32.10 ± 0.85 g
Body weight ([3]; nobiletin 10 mg/kg/day p.o., 3 weeks): 33.01 ± 1.01 g
Body weight ([3]; nobiletin 10 mg/kg/day p.o., 4 weeks): 32.58 ± 0.97 g
Body weight [3, 9]: 31.88 ± 0.68 g
Body weight ([3]; nobiletin 100 mg/kg/day p.o., 0 weeks after administration): 31.21 ± 0.60 g
Body weight ([3]; nobiletin 100 mg/kg/day p.o., 1 week): 29.93 ± 0.52 g
Body weight ([3]; nobiletin 100 mg/kg/day p.o., 2 weeks): 30.61 ± 0.60 g
Body weight ([3]; nobiletin 100 mg/kg/day p.o., 3 weeks): 31.62 ± 0.62 g
Body weight ([3]; nobiletin 100 mg/kg/day p.o., 4 weeks): 31.28 ± 0.59 g
Ingestion amount, [Final Average] [3, 14]: 2.58 ± 0.1 g
Ingestion amount, [Final Average] [3, 15]: 2.61 ± 0.08 g
Body weight, [Final gain] [3, 14]: 2.08 ± 0.69 g
Body weight, [Final gain] [3, 15]: 0.67 ± 0.37 g
Ingestion amount ([3]; day 0 (previous day of administration beginning), nobiletin 10 mg/kg/day group): 2.36 ± 0.04 g
Ingestion amount ([3]; day 0 (previous day of administration beginning), nobiletin 100 mg/kg/day group): 2.36 ± 0.04 g
Ingestion amount ([3]; day 1, nobiletin 10 mg/kg/day p.o., HFD): 2.28 ± 0.13 g
Ingestion amount ([3]; day 1, nobiletin 100 mg/kg/day p.o., HFD): 1.57 ± 0.09 g
Ingestion amount ([3]; day 2, nobiletin 10 mg/kg/day p.o., HFD): 1.85 ± 0.19 g
Ingestion amount ([3]; day 2, nobiletin 100 mg/kg/day p.o., HFD): 1.71 ± 0.13 g
Ingestion amount ([3]; day 3, nobiletin 10 mg/kg/day p.o., HFD): 1.85 ± 0.19 g
Ingestion amount ([3]; day 3, nobiletin 100 mg/kg/day p.o., HFD): 1.71 ± 0.13 g
Ingestion amount ([3]; day 4, nobiletin 10 mg/kg/day p.o., HFD): 2.27 ± 0.28 g
Ingestion amount ([3]; day 4, nobiletin 100 mg/kg/day p.o., HFD): 1.83 ± 0.15 g
Ingestion amount ([3]; day 5, nobiletin 10 mg/kg/day p.o., HFD): 1.78 ± 0.21 g
Ingestion amount ([3]; day 5, nobiletin 100 mg/kg/day p.o., HFD): 1.59 ± 0.20 g
Ingestion amount ([3]; day 6, nobiletin 10 mg/kg/day p.o., HFD): 2.36 ± 0.14 g
Ingestion amount ([3]; day 6, nobiletin 100 mg/kg/day p.o., HFD): 2.04 ± 0.09 g
Ingestion amount ([3]; day 7, nobiletin 10 mg/kg/day p.o., HFD): 2.99 ± 0.07 g
Ingestion amount ([3]; day 7, nobiletin 100 mg/kg/day p.o., HFD): 2.62 ± 0.12 g
Ingestion amount ([3]; day 8, nobiletin 10 mg/kg/day p.o., HFD): 2.12 ± 0.32 g
Ingestion amount ([3]; day 8, nobiletin 100 mg/kg/day p.o., HFD): 2.43 ± 0.03 g
Gene expression level (ratio), Skeletal muscle (GLUT4 protein) [4, 16]: 6.32
Gene expression level (ratio), White adipose tissue (GLUT4 protein) [4, 16]: 1.75
GLUT4 protein expression amount in the skeletal muscle, times higher than vehicle administration group [4]: about 6 times
GLUT4 protein expression level in the white adipose tissue, times higher than vehicle administration group [4]: 1.7 times
Gained body weight [5]: 9.33 ± 0.49 g
white adipose tissue [5]: 5.69 ± 0.17 g
shrinking of enlarged adipose cells of the white adipose tissue [6]: fails to shrink the adipose cells
Tissue Weight, Kidney [7, 8]: 0.34 ± 0.02 g/100 g of body weight
Tissue Weight, Liver [7, 8]: 1.28 ± 0.08 g/100 g of body weight
Tissue Weight, White adipose tissue [7, 8]: 1.96 ± 0.28 g/100 g of body weight
Tissue Weight, White adipose tissue [Periphery of genitals] [7, 8]: 1.23 ± 0.19 g/100 g of body weight
Tissue Weight, White adipose tissue [Periphery of intestine] [7, 8]: 0.27 ± 0.04 g/100 g of body weight
Tissue Weight, White adipose tissue [Periphery of kidney] [7, 8]: 0.47 ± 0.07 g/100 g of body weight
Tissue Weight, Kidney [7, 9]: 0.35 ± 0.01 g/100 g of body weight
Tissue Weight, Liver [7, 9]: 1.40 ± 0.04 g/100 g of body weight
Tissue Weight, White adipose tissue [7, 9]: 1.52 ± 0.15 g/100 g of body weight
Tissue Weight, White adipose tissue [Periphery of genitals] [7, 9]: 0.92 ± 0.09 g/100 g of body weight
Tissue Weight, White adipose tissue [Periphery of intestine] [7, 9]: 0.20 ± 0.02 g/100 g of body weight
Tissue Weight, White adipose tissue [Periphery of kidney] [7, 9]: 0.36 ± 0.03 g/100 g of body weight
